Source: patent publication US20040156869A1, “2-substituted quinazolin-4-ylamine analogues” (Neurogen Corporation, priority 2002, published 2004)

Target: human capsaicin receptor (VR1) (Homo sapiens, UniProt Q8NER1)
Assay: Capsaicin receptor binding assay ([3H]RTX competition, VR1-transfected HEK293 membranes)

Sequence of human capsaicin receptor (VR1) (Q8NER1 whole entry): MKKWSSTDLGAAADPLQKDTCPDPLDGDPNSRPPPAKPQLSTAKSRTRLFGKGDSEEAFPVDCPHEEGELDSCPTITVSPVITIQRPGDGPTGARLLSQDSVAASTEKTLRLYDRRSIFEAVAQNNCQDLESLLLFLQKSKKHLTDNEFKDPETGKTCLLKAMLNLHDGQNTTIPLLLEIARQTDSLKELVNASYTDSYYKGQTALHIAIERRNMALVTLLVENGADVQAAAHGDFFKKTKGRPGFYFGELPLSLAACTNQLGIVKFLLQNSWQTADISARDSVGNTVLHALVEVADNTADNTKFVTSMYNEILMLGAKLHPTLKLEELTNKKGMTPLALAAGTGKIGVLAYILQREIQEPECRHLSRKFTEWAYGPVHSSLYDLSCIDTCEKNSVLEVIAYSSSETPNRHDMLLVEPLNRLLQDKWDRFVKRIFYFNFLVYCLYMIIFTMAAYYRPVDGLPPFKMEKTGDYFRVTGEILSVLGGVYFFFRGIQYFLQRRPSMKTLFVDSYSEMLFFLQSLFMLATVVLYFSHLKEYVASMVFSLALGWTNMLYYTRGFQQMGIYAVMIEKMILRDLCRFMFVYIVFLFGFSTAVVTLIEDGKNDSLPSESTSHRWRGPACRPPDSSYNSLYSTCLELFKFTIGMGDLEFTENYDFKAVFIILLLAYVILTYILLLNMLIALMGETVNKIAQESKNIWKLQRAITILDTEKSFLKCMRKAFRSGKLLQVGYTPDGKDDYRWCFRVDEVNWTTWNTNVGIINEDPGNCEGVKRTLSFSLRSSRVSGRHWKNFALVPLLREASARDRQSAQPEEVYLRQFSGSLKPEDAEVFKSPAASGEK

Ki | Compound
< 1000 nM | COCc1cc(Nc2ccc(C(F)(F)F)cc2)c2ccc(-c3ncccc3C(F)(F)F)nc2n1 [Compound 297, [2-Methoxymethyl-7-(3-trifluoromethyl-pyridin-2-yl)-[1,8]naphthyridin-4-yl]-(4-trifluoromethyl-phenyl)-amine]
< 1000 nM | COCc1cc(Nc2ccc(C(C)(C)C)cc2)c2ccc(-c3ncccc3C(F)(F)F)nc2n1 [Compound 298, (4-tert-Butyl-phenyl)-[2-methoxymethyl-7-(3-trifluoromethyl-pyridin-2-yl)-[1,8]naphthyridin-4-yl]-amine]
< 1000 nM | COCc1nc2nc(-c3ncccc3C(F)(F)F)ccc2c(Nc2ccc(C(F)(F)F)cc2)c1C(=O)OC [Compound 299, 2-Methoxymethyl-4-(4-trifluoromethyl-phenylamino)-7-(3-trifluoromethyl-pyridin-2-yl)-[1,8]naphthyridine-3-carboxylic acid methyl ester]
< 1000 nM | OCc1cc(Nc2ccc(C(F)(F)F)cc2)c2ccc(-c3ncccc3C(F)(F)F)nc2n1 [Compound 300, [4-(4-Trifluoromethyl-phenylamino)-7-(3-trifluoromethyl-pyridin-2-yl)-[1,8]naphthyridin-2-yl]-methanol]
< 1000 nM | COCc1cc(Nc2ccc(Cl)cc2)c2ccc(-c3ncccc3C(F)(F)F)nc2n1 [Compound 302, (4-Chloro-phenyl)-[2-methoxymethyl-7-(3-trifluoromethyl-pyridin-2-yl)-[1,8]naphthyridin-4-yl]-amine]
< 1000 nM | COCc1cc(Nc2ccc(F)cc2)c2ccc(-c3ncccc3C(F)(F)F)nc2n1 [Compound 303, (4-Fluoro-phenyl)-[2-methoxymethyl-7-(3-trifluoromethyl-pyridin-2-yl)-[1,8]naphthyridin-4-yl]-amine]
< 1000 nM | COCc1cc(Nc2ccc(Cl)c(F)c2)c2ccc(-c3ncccc3C(F)(F)F)nc2n1 [Compound 304, (4-Chloro-3-fluoro-phenyl)-[2-methoxymethyl-7-(3-trifluoromethyl-pyridin-2-yl)-[1,8]naphthyridin-4-yl]-amine]
< 1000 nM | COCc1cc(Nc2ccc(C#N)cc2)c2ccc(-c3ncccc3C(F)(F)F)nc2n1 [Compound 305, 4-[2-Methoxymethyl-7-(3-trifluoromethyl-pyridin-2-yl)-[1,8]naphthyridin-4-ylamino]-benzonitrile]
< 1000 nM | COCc1cc(Nc2ccc(S(=O)(=O)C(C)C)cc2)c2ccc(-c3ncccc3C(F)(F)F)nc2n1 [Compound 306, [2-Methoxymethyl-7-(3-trifluoromethyl-pyridin-2-yl)-[1,8]naphthyridin-4-yl]-[4-(propane-2-sulfonyl)-phenyl]-amine]
< 1000 nM | COCc1cc(Nc2ccc(C(F)(F)F)cn2)c2ccc(-c3ncccc3C(F)(F)F)nc2n1 [Compound 307, [2-Methoxymethyl-7-(3-trifluoromethyl-pyridin-2-yl)-[1,8]naphthyridin-4-yl]-(5-trifluoromethyl-pyridin-2-yl)-amine]
< 1000 nM | COCc1cc(Nc2ccc(S(=O)(=O)C(F)(F)F)cc2)c2ccc(-c3ncccc3C(F)(F)F)nc2n1 [Compound 308, [2-Methoxymethyl-7-(3-trifluoromethyl-pyridin-2-yl)-[1,8]naphthyridin-4-yl]-(4-trifluoromethanesulfonyl-phenyl)-amine]
< 1000 nM | CN(C)CCOCc1cc(Nc2ccc(C(F)(F)F)cc2)c2ccc(-c3ncccc3C(F)(F)F)nc2n1 [Compound 309, [2-(2-Dimethylamino-ethoxymethyl)-7-(3-trifluoromethyl-pyridin-2-yl)-[1,8]naphthyridin-4-yl]-(4-trifluoromethyl-phenyl)-amine]
< 1000 nM | CCOCc1cc(Nc2ccc(C(F)(F)F)cc2)c2ccc(-c3ncccc3C(F)(F)F)nc2n1 [Compound 310, [2-Ethoxymethyl-7-(3-trifluoromethyl-pyridin-2-yl)-[1,8]naphthyridin-4-yl]-(4-trifluoromethyl-phenyl)-amine]
< 1000 nM | CC(C)OCc1cc(Nc2ccc(C(F)(F)F)cc2)c2ccc(-c3ncccc3C(F)(F)F)nc2n1 [Compound 311, [2-Isopropoxymethyl-7-(3-trifluoromethyl-pyridin-2-yl)-[1,8]naphthyridin-4-yl]-(4-trifluoromethyl-phenyl)-amine]
< 1000 nM | CCCOCc1cc(Nc2ccc(C(F)(F)F)cc2)c2ccc(-c3ncccc3C(F)(F)F)nc2n1 [Compound 313, [2-Propoxymethyl-7-(3-trifluoromethyl-pyridin-2-yl)-[1,8]naphthyridin-4-yl]-(4-trifluoromethyl-phenyl)-amine]
< 1000 nM | CC(c1ccccc1)N(C)Cc1nc(Nc2ccc(C(F)(F)F)cc2)c2ccc(-c3ncccc3C(F)(F)F)cc2n1 (stereo not drawn) [Compound 323, [2-{[Methyl-(1-phenyl-ethyl)-amino]-methyl}-7-(3-trifluoromethyl-pyridin-2-yl)-quinazolin-4-yl]-(4-trifluoromethyl-phenyl)-amine]
< 1000 nM | CN(Cc1nc(Nc2ccc(C(F)(F)F)cc2)c2ccc(-c3ncccc3C(F)(F)F)cc2n1)C1CCc2ccccc21 (stereo not drawn) [Compound 324, [2-[(Indan-1-yl-methyl-amino)-methyl]-7-(3-trifluoromethyl-pyridin-2-yl)-quinazolin-4-yl]-(4-trifluoromethyl-phenyl)-amine]
< 1000 nM | CCCN(C)Cc1nc(Nc2ccc(C(F)(F)F)cc2)c2ccc(-c3ncccc3C(F)(F)F)cc2n1 [Compound 330]
< 1000 nM | CCCCN(C)Cc1nc(Nc2ccc(C(F)(F)F)cc2)c2ccc(-c3ncccc3C(F)(F)F)cc2n1 [Compound 331]
< 1000 nM | CCN(Cc1nc(Nc2ccc(C(F)(F)F)cc2)c2ccc(-c3ncccc3C(F)(F)F)cc2n1)C(C)C [Compound 332]
< 1000 nM | C=CCN(CC=C)Cc1nc(Nc2ccc(C(F)(F)F)cc2)c2ccc(-c3ncccc3C(F)(F)F)cc2n1 [Compound 333]
< 1000 nM | CCCCN(CC)Cc1nc(Nc2ccc(C(F)(F)F)cc2)c2ccc(-c3ncccc3C(F)(F)F)cc2n1 [Compound 334]
< 1000 nM | CCCCCCN(C)Cc1nc(Nc2ccc(C(F)(F)F)cc2)c2ccc(-c3ncccc3C(F)(F)F)cc2n1 [Compound 336]

Compound | Ki
CC(C)COCc1cc2nc(-c3ncccc3C(F)(F)F)ccc2c(Nc2ccc(C(F)(F)F)cc2)n1 [Compound 296, [7-Isobutoxymethyl-2-(3-trifluoromethyl-pyridin-2-yl)-[1,6]naphthyridin-5-yl]-(4-trifluoromethyl-phenyl)-amine] | < 1000 nM
CC(C)COCc1cc(Nc2ccc(C(F)(F)F)cc2)c2ccc(-c3ncccc3C(F)(F)F)nc2n1 [Compound 301, [2-Isobutoxymethyl-7-(3-trifluoromethyl-pyridin-2-yl)-[1,8]naphthyridin-4-yl]-(4-trifluoromethyl-phenyl)-amine] | < 1000 nM
CC(C)CCOCc1cc(Nc2ccc(C(F)(F)F)cc2)c2ccc(-c3ncccc3C(F)(F)F)nc2n1 [Compound 312, [2-(3-Methyl-butoxymethyl)-7-(3-trifluoromethyl-pyridin-2-yl)-[1,8]naphthyridin-4-yl]-(4-trifluoromethyl-phenyl)-amine] | < 1000 nM
CC(C)COCc1cc(Nc2ccc(C(F)(F)F)cn2)c2ccc(-c3ncccc3C(F)(F)F)nc2n1 [Compound 314, [2-Isobutoxymethyl-7-(3-trifluoromethyl-pyridin-2-yl)-[1,8]naphthyridin-4-yl]-(5-trifluoromethyl-pyridin-2-yl)-amine] | < 1000 nM
